Test results published in article PMC10384440 (Viruses, 2023).
Like-named read-outs stand apart in the source and are kept apart here.

What was measured:
Type in all cases: cell-based
DENV-2 New Guinea = experiment: Antiviral screening: NS1 protein production in DENV-2 infected Huh-7 cells; settings: for NS1 production: DENV-2 infected Huh-7, MOI 1, 24 h, compounds at non-cytotoxic concentrations (between 40 and 100 µM), mycophenolic acid 20 µM, relative to viral control; for effect on NS1 production vs viral control: DENV-2 infected Huh-7, 24 h, non-cytotoxic concentrations (between 40 and 100 µM)
Huh-7 cells = experiment: Cytotoxic effect on Huh-7 cells, cell viability assay with resazurin; settings: for effect on cell viability at 100 µM: highest concentration evaluated
[1] = as above; settings: human
DENV-2 = experiment: Viral RNA production of DENV-2 in infected Huh-7 cells (RT-qPCR); settings: 50 µM; DENV-2 infected Huh-7; normalized using GAPDH; vs viral control
[2] = test system: DENV-2 subgenomic replicon in Huh-7 cells; experiment: NS5 protein production in Huh-7 DENV-2 replicon cells (ELISA)
[3] = Huh-7, all evaluated concentrations
[4] = Huh-7 cells, Huh-7 cell line, resazurin, read-out: CC50

Row | Structure (SMILES) | NS1 production (DENV-2 New Guinea) | effect on cell viability at the evaluated concentrations (Huh-7 cells; [3]) | CC50 [1, 4] [µM] | effect on NS1 production vs viral control (DENV-2 New Guinea) | also measured
1 | COc1c(C)c2c(c(O)c1C/C=C(\C)CCC(=O)O)C(=O)OC2 [mycophenolic acid, Mycophenolic acid, reference compound] | around 63% | – | – | – | –
2 | O=C(NCCc1ccc(Cl)cc1)C1Cc2c([nH]c3ccccc23)C2c3ccccc3C(=O)N12 (stereo not drawn) [R53] | – | reduced cell viability | 30 | – | –
3 | Cc1cc(C)cc(NC(=O)C(NC(=O)N2CC3CC(C2)c2cccc(=O)n2C3)C(C)C)c1 (stereo not drawn) [R07] | – | – | – | reduction in NS1 production | effect on cell viability at the evaluated concentrations (Huh-7 cells): did not reduce cell viability; CC50 ([1]; CC50): > 100 µM
4 | Cc1ccc(CNC(=O)C2Cc3c([nH]c4ccccc34)C3c4ccccc4C(=O)N23)cc1 (stereo not drawn) [MR94] | – | – | 46.2 | except for treatment with MR94 | –
5 | CC1(C)CC(NC(=O)C2Cc3c([nH]c4ccccc34)C3c4ccccc4C(=O)N23)CC(C)(C)N1 (stereo not drawn) [M78] | ~38% | – | 60.8 | reduction in NS1 production | reduction of DENV-2 viral RNA (relative expression, 2^−ΔΔCT) (DENV-2): 1.7 times; effect on cell viability at 100 µM (Huh-7 cells; Huh-7): loss of viability; viability ([1]; Huh-7 cells, Huh-7, at 12.5, 25, and 50 µM, read-out: cellular viability): ~100%; selectivity index (SI), CC50/IC50 ([2]; CC50 Huh-7 / IC50 NS5 production): 2.5; IC50 ([2]; Dengue virus, DENV2, Huh-7 DENV-2 replicon, dose-response curve, 24 h): 24.6 µM; reduction of NS5 protein expression ([2]; Huh-7 DENV-2 replicon, 50 µM): 70%; NS5 production ([2]; Huh-7 DENV-2 replicon, 50 µM, 24 h, compared to VC (100%)): ~30%
6 | O=C(NCc1ccccc1)C1Cc2c([nH]c3ccccc23)C2c3ccccc3C(=O)N12 (stereo not drawn) [R32] | – | did not reduce cell viability | > 100 | reduction in NS1 production | –
7 | O=C(Nc1ccc2c(c1)OCCO2)[C@@H]1CCCN1C(=O)[C@@H]1Cc2ccccc2CN1 [M76] | – | – | > 100 | reduction in NS1 production | effect on cell viability at 100 µM (Huh-7 cells; Huh-7): no effect was observed
8 | O=C(NCCc1c[nH]c2ccccc12)C1Cc2c([nH]c3ccccc23)C2c3ccccc3C(=O)N12 (stereo not drawn) [MR25] | ~45% | – | 70.6 | reduction in NS1 production | –
9 | O=C(NCCc1ccccc1)C1Cc2c([nH]c3ccccc23)C2c3ccccc3C(=O)N12 (stereo not drawn) [R55] | – | did not reduce cell viability | > 100 | reduction in NS1 production | –
10 | O=C(NCCc1ccccc1F)C1Cc2c([nH]c3ccccc23)C2c3ccccc3C(=O)N12 (stereo not drawn) [MR41] | – | no effect was evidenced | > 100 | reduction in NS1 production | –
